System: EstSTR1
Assay type: biochemical, uncultured bacterium
Settings: competitive against 100 μM cephalothin; 10 mM MES pH 6.8, bovine serum albumin 20 μg/ml, enzyme 396 μM as printed; stands in Km column, footnote gives Ki

Q: `CO/N=C(\C(=O)N[C@@H]1C(=O)N2C(C(=O)O)=C(COC(C)=O)CS[C@H]12)c1csc(N)n1` [TAX, cefotaxime] was tested. Which “Km (μM) / Wild” value did it give?
A: Its value is 0.90 ± 0.004 µM.
